From patent EP4592286A1, “MACROCYCLIC NITROGEN-CONTAINING CROWN ETHER COMPOUND AND USE THEREOF AS PROTEIN KINASE INHIBITOR” (Artivila Biopharma, priority 2022, dated 2024) come the findings set out here.

One assay concerns the target JAK2 (Homo sapiens, UniProt O60674). Description: experiment of inhibiting kinase activity (Caliper mobility shift assay), JAK2. Format: biochemical. To be noted: for inhibition at 0.01 µM: at 10 nM. An outline of the steps:
(§1)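 Read-out was Caliper mobility shift of substrate conversion, normalized to no-inhibitor and buffer-only wells, with IC50 from a variable-slope log(inhibitor) curve. Enzyme was exposed to compound (10-point 3-fold series from 10 µM, or single 10/100 nM) 10 min at room temperature before ATP/substrate addition.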

In another assay the target is LRRK2 (Homo sapiens, UniProt Q5S007). As to the kind of experiment: experiment of inhibiting kinase activity, LRRK2. It is filed as biochemical. Particulars: for IC50: kinase activity assay, Table 3; for inhibition at 0.01 µM: at 10 nM. Here is the method: (§2) The inhibition rates of tested compounds on JAK1, JAK2, JAK3, TYK2, CDK7, CDK9, EGFR (T790M) and LRRK2 kinases were measured. The test concentrations of the compounds were 10 nM and 100 nM, and the detection was performed by replicate wells. Alternatively, compounds were 3-fold serial diluted from 10 µM for 10 concentrations in replicate wells.
Sequence of LRRK2 (Q5S007 whole entry): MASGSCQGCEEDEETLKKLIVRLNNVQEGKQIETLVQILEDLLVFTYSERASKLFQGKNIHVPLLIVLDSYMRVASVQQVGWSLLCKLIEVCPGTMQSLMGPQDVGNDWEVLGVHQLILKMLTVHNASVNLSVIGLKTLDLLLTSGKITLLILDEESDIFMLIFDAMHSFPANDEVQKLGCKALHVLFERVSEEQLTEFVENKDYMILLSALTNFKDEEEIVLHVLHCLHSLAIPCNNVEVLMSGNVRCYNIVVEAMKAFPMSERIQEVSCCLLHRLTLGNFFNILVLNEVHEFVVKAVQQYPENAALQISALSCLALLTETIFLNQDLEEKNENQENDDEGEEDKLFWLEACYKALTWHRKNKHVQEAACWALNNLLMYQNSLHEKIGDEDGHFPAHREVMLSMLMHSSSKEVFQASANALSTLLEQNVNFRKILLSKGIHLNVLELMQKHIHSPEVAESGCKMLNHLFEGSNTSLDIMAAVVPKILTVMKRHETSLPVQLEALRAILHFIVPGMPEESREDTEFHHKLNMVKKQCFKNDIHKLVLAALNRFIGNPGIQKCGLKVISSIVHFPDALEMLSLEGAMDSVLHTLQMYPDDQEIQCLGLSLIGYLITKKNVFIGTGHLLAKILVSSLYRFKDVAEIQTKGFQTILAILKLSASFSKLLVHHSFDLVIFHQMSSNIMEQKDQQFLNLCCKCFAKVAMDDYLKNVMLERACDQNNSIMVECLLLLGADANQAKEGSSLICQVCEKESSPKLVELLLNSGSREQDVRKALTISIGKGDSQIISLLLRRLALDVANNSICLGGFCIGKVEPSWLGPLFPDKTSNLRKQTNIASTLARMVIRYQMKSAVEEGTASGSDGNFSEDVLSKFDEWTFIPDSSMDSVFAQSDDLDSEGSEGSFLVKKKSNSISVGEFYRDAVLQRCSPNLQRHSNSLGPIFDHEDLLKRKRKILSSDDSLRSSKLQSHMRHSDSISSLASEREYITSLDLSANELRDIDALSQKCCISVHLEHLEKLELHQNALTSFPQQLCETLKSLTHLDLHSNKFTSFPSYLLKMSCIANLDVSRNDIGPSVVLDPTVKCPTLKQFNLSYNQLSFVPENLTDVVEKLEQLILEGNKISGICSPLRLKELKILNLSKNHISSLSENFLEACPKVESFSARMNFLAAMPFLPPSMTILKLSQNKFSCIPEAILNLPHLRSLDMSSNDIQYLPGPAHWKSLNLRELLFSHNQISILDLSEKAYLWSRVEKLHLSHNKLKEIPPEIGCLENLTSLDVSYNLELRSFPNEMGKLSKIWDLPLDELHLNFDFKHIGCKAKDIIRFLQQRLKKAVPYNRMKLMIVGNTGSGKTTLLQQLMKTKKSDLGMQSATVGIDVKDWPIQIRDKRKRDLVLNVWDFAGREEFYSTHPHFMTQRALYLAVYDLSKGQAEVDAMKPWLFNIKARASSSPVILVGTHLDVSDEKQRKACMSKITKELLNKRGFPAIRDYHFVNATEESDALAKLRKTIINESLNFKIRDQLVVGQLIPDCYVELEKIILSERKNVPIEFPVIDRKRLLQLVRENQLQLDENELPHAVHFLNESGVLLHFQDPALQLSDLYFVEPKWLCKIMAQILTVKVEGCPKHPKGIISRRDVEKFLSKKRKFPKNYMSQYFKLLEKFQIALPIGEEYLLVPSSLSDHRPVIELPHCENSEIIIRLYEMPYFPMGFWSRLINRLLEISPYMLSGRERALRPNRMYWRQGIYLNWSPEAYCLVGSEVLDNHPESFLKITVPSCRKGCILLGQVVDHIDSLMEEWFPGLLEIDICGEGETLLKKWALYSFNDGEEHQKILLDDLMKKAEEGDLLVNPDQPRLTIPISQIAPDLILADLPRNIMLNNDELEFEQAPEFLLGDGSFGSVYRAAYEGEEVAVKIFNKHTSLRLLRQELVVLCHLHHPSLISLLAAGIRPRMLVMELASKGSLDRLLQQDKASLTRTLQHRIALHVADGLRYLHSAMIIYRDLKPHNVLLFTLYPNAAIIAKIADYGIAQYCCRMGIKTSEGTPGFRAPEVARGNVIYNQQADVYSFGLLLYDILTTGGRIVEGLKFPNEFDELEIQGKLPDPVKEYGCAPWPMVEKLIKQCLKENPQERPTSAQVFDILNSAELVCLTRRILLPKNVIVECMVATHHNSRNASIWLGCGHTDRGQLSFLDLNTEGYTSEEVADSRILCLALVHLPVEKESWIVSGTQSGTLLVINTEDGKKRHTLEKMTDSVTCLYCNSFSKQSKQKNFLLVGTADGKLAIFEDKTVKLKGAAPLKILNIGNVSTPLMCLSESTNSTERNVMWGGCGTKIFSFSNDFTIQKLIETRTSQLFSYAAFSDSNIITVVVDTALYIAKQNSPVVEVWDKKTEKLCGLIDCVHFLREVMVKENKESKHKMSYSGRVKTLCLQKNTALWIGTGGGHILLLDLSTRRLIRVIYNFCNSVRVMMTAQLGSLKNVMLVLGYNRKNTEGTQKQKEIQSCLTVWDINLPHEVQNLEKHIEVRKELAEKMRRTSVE

In assay [1] the target is T1, JAK3 (Mus musculus, UniProt Q62137).
T1 construct: endogenous in cells; host or cells: CTLL-2
T1 sequence (Q62137 1-1100): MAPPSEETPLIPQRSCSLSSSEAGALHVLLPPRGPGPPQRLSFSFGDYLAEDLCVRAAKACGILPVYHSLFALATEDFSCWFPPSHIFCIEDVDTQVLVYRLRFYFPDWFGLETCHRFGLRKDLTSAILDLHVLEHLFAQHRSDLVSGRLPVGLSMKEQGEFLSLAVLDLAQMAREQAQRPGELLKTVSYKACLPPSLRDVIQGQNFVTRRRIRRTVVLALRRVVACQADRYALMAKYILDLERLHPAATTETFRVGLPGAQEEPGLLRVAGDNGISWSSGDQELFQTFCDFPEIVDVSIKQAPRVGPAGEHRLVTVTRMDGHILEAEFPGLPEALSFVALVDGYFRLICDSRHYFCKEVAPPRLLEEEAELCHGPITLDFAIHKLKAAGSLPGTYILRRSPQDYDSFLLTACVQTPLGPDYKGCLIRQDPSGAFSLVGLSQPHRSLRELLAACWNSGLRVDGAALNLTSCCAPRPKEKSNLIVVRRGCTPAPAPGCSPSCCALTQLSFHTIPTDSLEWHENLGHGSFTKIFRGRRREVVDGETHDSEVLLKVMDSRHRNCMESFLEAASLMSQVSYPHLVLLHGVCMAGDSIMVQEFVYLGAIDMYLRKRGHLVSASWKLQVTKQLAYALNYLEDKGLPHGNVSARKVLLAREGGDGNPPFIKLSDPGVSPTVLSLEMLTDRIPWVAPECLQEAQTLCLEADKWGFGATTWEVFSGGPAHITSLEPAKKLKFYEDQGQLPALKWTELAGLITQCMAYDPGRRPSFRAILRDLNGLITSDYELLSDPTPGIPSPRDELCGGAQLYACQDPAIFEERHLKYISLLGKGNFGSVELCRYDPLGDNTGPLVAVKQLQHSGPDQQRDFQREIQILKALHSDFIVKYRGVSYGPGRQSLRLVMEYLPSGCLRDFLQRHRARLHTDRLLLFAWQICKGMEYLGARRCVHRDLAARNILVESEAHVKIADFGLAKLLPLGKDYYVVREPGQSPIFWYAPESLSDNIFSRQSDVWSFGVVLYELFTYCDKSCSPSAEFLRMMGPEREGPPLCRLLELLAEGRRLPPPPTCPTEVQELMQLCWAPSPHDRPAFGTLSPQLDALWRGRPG
Description: JAKs cell activity test: JAK3_pSTAT5 in IL-2-induced CTLL-2 cells. Format: cell-based. To be noted: pSTAT5, IL-2-induced CTLL-2 cells. Here is the method: (§3) THP1 cells were collected by centrifugation, resuspended with 1×HBSS, counted and diluted to a certain cell density. They were inoculated in a 384-well plate and cultured in a saturated humidity incubator with 37 °C and 5% CO2. The compound (DMSO final volume of 0.3%) was added to THP1 cells (10 doses in duplicates) and cultured in a saturated humidity incubator with 37 °C and 5% CO2. hIL-4 was added to stimulate cells and cultured in a saturated humidity incubator with 37 °C and 5% CO2. The lysis solution was added and incubated at room temperature. According to the instructions of AlphaLISA SureFire Ultra p-STAT6 detection kit, the lysis solution was transferred to pSTAT6 detection system, and the ALPHA signal was read by PE Envision microplate reader. The inhibition rate Inh%=((DMSO-sample)/(DMSO-background))×100 was calculated. IC50 was obtained by fitting with GraphPad Prism non-linear regression equation, and y=Bottom+(Top-Bottom)/(1+10^((LogIC50-x)×hillslope)), where x was the concentration of the compound and y was the inhibition rate.
JAK2_pSTAT5 was tesed in IL-3-induced BAF3 cells according to the above steps, and JAK3_pSTAT5 was tested in IL-2-induced CTLL-2 cells (without serum stimulation) according to the above steps.

Assay [2] deals with T2, JAK1 (Homo sapiens, UniProt P23458). As to the kind of experiment: experiment of inhibiting kinase activity (Caliper mobility shift assay), JAK1. Format: biochemical. Summed up:
as §1

For assay [3], the target named is T2, JAK1. As to the kind of experiment: JAKs cell activity test: detection of pSTAT6 in THP1 cells induced by JAK1_IL-4. It is filed as cell-based. Particulars: pSTAT6, IL-4-induced THP1 cells. Here is the method: Detection of pSTAT6 in THP1 cells induced by JAK1_IL-4
as §3

For another assay, the target named is T3, wild-type LRRK2 (Homo sapiens, UniProt Q5S007).
T3 construct: pCMV-flag-WT LRRK2 (full-length); expressed in transfected cells; host or cells: HEK293T
T3 sequence (Q5S007 whole entry): as the sequence (Q5S007 whole entry) above
As to the kind of experiment: detection of phosphorylated S935 in HEK293T overexpressing wild-type LRRK2. It is filed as cell-based. To be noted: pS935, HEK293T overexpressing wild-type LRRK2, 1.5 hours. Here is the method: (§4) Detection of phosphorylated S935 in HEK293T Overexpressing full-length LRRK2 (G2019S) or wild-type LRRK2
(§5) HEK293T cells was inoculated into a 6-well plate and cultured overnight. The next day, they were transiently transfected with plasmid pcDNA5-FRT/TO-FLAG LRRK2 (G2019S, full-length) or pCMV-flag-WT LRRK2 (full-length) by using Superfect transfection reagent and cultured at 37°C and 5% CO2 for 20-24 hours. The next day, cells were collected, resuspended at a density of 0.48×10^6 cells/ml, and inoculated into a 384-well plate at 50 microliters/well. Compound or DMSO solutions (volume ratio of 0.5%) were added by Tecan, and cultured at 37°C and 5% CO2 for 1.5 hours. After 1.5 hours, the supernatant was discarded, 50 microliters of 8% PFA were added in each well to fix the cells, and the cells were incubated at room temperature for 1 hour. The plate was washed with EL406 plate washer for three times, with 115 microliters of PBST per well, and the culture plate was patted to dryness. The cells were blocked with 50 microliters/well of Licor Odyssey blocking solution (0.1% Tween 20) at room temperature for 1.5 hours. The blocking solution was discarded and the culture plate was patted to dryness. 20 microliters of primary antibody (1:1000(pS935), diluted with Licor Odyssey buffer (0.1% Tween20)) was added into each well, and incubated at 4 °C overnight. The next day, the first antibody was discarded and washing was performed with PBST for five times. 20 microliters of secondary antibody (diluted with Licor Odyssey buffer (0.1% Tween20) at 1:500 and stained with DNA at 1:2000) were added into each well, and incubated at room temperature for 1 hour. The second antibody was discarded, and washing was performed for three times with PBST. The fluorescence intensity was measured by LICOR Odyssey imager Scanner, and the data was analyzed.

The target in assay [4] is T4, JAK3 (Homo sapiens, UniProt P52333).
T4 sequence (P52333 1-1124): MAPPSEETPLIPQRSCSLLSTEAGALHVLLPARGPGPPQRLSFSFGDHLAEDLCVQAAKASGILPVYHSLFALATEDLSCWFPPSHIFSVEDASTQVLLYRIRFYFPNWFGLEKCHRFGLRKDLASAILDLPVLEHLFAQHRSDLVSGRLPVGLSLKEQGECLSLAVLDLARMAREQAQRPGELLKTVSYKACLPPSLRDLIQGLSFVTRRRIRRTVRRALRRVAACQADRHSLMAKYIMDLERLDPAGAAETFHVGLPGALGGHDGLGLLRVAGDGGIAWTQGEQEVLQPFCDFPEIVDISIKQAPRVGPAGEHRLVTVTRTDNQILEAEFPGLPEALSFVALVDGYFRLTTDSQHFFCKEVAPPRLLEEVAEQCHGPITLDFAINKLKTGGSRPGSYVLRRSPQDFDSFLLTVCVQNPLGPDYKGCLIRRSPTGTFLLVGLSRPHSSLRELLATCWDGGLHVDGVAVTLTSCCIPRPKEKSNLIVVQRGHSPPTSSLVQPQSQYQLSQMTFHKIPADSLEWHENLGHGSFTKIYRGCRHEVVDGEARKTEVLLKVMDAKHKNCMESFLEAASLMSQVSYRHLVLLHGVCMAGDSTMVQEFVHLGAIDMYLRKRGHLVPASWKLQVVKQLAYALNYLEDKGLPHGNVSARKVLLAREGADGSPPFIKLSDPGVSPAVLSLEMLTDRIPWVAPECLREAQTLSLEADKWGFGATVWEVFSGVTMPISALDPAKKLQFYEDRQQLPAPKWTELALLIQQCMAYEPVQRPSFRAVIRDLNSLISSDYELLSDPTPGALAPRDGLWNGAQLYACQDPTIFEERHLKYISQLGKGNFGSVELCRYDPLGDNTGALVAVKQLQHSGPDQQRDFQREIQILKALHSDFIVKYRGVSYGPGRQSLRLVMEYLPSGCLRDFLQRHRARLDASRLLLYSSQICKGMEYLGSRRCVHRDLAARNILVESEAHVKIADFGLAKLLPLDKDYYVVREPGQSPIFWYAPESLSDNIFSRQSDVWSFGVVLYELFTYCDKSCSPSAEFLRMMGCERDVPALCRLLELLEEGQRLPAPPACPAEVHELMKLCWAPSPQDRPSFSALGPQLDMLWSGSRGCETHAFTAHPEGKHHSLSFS
Description: experiment of inhibiting kinase activity (Caliper mobility shift assay), JAK3. Format: biochemical. To be noted: at 10 nM; read-out: inhibition rate JAK3. An outline of the steps:
as §1

The target in a further assay is T5, LRRK2 (G2019S) (Homo sapiens, UniProt Q5S007, G2019S).
T5 construct: pcDNA5-FRT/TO-FLAG LRRK2 (G2019S, full-length); expressed in transfected cells; host or cells: HEK293T
T5 sequence (Q5S007 whole entry G2019S): as the sequence (Q5S007 whole entry) above, with G2019S counted along it
Description: detection of phosphorylated S935 in HEK293T overexpressing full-length LRRK2 (G2019S). Format: cell-based. Particulars: pS935, HEK293T overexpressing LRRK2 (G2019S), 1.5 hours. On the procedure:
as §4, §5

A further assay addresses TYK2 (Homo sapiens, UniProt P29597). As to the kind of experiment: experiment of inhibiting kinase activity, TYK2. Particulars: at 10 nM; read-out: inhibition rate TYK2. Format: biochemical. Here is the method: as §2
Setting [5] is: read-out: inhibition rate LRRK2.

Sequence of JAK2 (O60674 whole entry): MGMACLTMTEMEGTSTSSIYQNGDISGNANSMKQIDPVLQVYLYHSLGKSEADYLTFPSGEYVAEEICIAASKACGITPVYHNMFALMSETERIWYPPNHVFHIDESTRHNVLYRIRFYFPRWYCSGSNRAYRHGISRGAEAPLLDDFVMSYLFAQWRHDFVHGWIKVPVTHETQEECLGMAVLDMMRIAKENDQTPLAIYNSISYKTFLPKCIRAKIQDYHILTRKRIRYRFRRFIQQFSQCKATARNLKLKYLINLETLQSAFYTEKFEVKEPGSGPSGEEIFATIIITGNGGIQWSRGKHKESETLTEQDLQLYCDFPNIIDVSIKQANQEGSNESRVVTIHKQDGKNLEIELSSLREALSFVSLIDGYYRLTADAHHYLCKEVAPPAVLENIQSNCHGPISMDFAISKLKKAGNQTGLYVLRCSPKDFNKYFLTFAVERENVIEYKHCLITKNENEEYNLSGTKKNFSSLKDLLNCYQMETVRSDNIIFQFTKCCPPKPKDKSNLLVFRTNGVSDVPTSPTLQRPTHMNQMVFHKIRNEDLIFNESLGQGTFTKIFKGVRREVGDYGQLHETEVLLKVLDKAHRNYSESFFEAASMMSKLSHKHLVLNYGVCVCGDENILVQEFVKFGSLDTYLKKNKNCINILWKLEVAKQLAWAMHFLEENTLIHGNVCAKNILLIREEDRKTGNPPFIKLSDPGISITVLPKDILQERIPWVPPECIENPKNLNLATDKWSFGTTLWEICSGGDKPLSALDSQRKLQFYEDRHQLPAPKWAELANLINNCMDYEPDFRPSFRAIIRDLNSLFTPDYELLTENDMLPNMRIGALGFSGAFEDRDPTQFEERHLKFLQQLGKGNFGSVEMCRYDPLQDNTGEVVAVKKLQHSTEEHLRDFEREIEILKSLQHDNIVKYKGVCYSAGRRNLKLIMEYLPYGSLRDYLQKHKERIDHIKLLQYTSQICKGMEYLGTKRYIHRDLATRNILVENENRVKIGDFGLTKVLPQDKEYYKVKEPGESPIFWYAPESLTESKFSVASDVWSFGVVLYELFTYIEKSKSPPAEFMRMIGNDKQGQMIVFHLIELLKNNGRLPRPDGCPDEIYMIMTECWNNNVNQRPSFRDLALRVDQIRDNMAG
T2 sequence (P23458 whole entry): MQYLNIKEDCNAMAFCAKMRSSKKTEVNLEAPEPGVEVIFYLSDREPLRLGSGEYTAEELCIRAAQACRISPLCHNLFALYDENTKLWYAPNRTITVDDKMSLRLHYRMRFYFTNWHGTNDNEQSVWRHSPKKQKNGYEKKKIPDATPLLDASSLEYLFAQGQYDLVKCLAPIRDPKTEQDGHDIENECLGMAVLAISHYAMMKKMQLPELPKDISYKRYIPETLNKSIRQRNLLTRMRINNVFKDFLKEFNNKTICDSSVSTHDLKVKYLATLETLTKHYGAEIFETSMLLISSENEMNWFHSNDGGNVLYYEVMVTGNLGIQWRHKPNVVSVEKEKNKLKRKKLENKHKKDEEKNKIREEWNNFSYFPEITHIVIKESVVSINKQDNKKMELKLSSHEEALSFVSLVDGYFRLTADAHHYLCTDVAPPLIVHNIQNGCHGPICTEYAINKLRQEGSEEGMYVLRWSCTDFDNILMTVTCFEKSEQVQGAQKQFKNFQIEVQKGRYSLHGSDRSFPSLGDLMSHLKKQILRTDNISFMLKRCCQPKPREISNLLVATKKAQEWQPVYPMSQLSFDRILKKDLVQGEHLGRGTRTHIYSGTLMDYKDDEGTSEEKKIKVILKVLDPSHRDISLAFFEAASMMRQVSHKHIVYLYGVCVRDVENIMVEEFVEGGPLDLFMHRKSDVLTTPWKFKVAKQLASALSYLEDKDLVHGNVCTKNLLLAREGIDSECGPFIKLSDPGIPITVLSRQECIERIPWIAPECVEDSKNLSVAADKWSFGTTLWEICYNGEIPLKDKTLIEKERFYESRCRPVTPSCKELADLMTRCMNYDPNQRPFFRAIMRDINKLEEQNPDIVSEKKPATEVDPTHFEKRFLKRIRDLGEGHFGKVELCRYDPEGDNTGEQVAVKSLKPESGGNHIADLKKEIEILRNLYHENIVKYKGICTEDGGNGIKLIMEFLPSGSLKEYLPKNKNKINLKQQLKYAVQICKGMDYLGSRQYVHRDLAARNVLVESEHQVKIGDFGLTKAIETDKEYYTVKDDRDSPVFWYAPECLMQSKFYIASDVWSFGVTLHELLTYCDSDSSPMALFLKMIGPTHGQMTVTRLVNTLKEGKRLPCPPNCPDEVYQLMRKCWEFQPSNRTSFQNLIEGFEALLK

`CN1CCOc2ccc(Nc3nc(-c4cnn(C(CC#N)C5CCCC5)c4)c4cc[nH]c4n3)cc2OCC1` (centres unmarked) [Example 27, 3-cyclopentyl-3-(4-(2-((4-methyl-3,4,5,6-tetrahydro-2H-benzo[b][1,4,7]dioxazolin-9-yl)amino)-7H-pyrrolo[2,3-d]pyrimidin-4-yl)-1H-pyrazol-1-yl)propanenitrile]: the inhibition at 0.01 µM is above 80% at JAK2 (read-out: inhibition rate JAK2) and 40 to 79% on JAK1 [2] (at 10 nM, read-out: inhibition rate JAK1). The inhibition at 0.1 µM at JAK2 (at 100 nM, read-out: inhibition rate JAK2) was above 80%; at LRRK2 (at 100 nM, read-out: inhibition rate LRRK2) it was above 80%; on JAK1 [2] (at 100 nM, read-out: inhibition rate JAK1) it was above 80%. For the same compound, the IC50 at JAK2 (kinase activity assay, Table 3) was below 50 nM; on LRRK2 it was below 50 nM; on JAK1 [2] (kinase activity assay, Table 3) it was below 50 nM. The concentration giving a half-maximal response (EC50) at JAK3 [1] and on JAK1 [3] was below 50 nM in each case.
For the compound `CN1CCOc2ccc(Nc3nc(Nc4ccccc4P(C)(C)=O)c4cc[nH]c4n3)cc2OCC1` [Example 73, dimethyl(2-((2-((4-methyl-3,4,5,6-tetrahydro-2H-benzo[b][1,4,7]dioxazolin-9-yl)amino)-7H-pyrrolo[2,3-d]pyrimidin-4-yl)amino)phenyl)phosphine oxide], the inhibition at 0.01 µM is above 80% on JAK2 (read-out: inhibition rate JAK2), above 80% on LRRK2 (setting [5]), above 80% on JAK3 [4] and 40 to 79% at TYK2. In addition, the EC50 on wild-type LRRK2 and on LRRK2 (G2019S) was below 500 nM in each case. Besides, the IC50 against LRRK2 was below 50 nM.
As for `C=CC(=O)Nc1cccc(Nc2nc(Nc3ccc4c(c3)OCCN(C)CCO4)ncc2Cl)c1` [Example 55, N-(3-((5-chloro-2-((4-methyl-3,4,5,6-tetrahydro-2H-benzo[b][1,4,7]dioxazolin-9-yl)amino)pyrimidin-4-yl)amino)phenyl)acrylamide], the inhibition at 0.01 µM is 25 to 39% at JAK2 (read-out: inhibition rate JAK2) and above 80% at JAK3 [4]. Moreover, at JAK3 [1], the EC50 is 50 to 500 nM.
On to `CC(C)S(=O)(=O)c1ccccc1Nc1nc(Nc2ccc3c(c2)OCCN(C)CCO3)ncc1C(F)(F)F` [Example 82, N^4-(2-(isopropylsulfonyl)phenyl)-N^2-(4-methyl-3,4,5,6-tetrahydro-2H-benzo[b][1,4, 7]dioxazolin-9-yl)-5-(trifluoromethyl)pyrimidin-2,4-diamine], for which the inhibition at 0.01 µM was 40 to 79% at JAK2 (read-out: inhibition rate JAK2), above 80% at LRRK2 (setting [5]) and 40 to 79% on TYK2. Further, the EC50 on wild-type LRRK2 and at LRRK2 (G2019S) was below 500 nM in each case. Further, the IC50 against LRRK2 was below 50 nM.

One may read the inhibition as the share of the control response that was lost under treatment. What is called IC50 is the concentration that gives 50% inhibition. In general, EC50 refers to the concentration giving half of the maximal effect. A lower EC50 goes with greater potency.
